# Measurements reported in patent US10752632B2, “6-fluoro 2-methylbenzo[d]thiazol-5-yl compounds” (Eli Lilly and Company, priority 2018, dated 2020).
# Target: full-length human O-GlcNAc-β-N-acetylglucosaminidase (OGA) (Homo sapiens (Human), UniProt O60502)
# Assay: In Vitro Human OGA Enzyme Assay
# Format: biochemical
# Details: His-OGA enzyme, FD-GlcNAc substrate 6.7 μM, 30 min pre-incubation, 60 min at room temperature, pH 7
# Method: In Vitro Human OGA Enzyme Assay
# The nucleotide sequence encoding full-length human O-GlcNAc-β-N-acetylglucosaminidase (NM_012215) is inserted into pFastBac1 (Invitrogen) vector with an N-terminal poly-histidine (HIS) tag. Baculovirus generation is carried out according to the Bac-to-Bac Baculovirus Expression system (Invitrogen) protocol. Sf9 cells are infected at 1.5×10^6 cells/mL using 10 mL of P1 virus per Liter of culture and incubated at 28° C. for 48 hrs. Cells are spun down, rinsed with PBS and the pellets stored at −80° C. The above OGA protein (His-OGA) is purified as follows: 4 L of cells are lysed in 200 mL of buffer containing 50 mM Tris, pH 8.0, 300 mM NaCl, 10% glycerol, 10 mM imidazole, 1 mM dithiothreitol (DTT), 0.1% Triton™ X-100, 4 tablets of protease inhibitors (complete EDTA-Free, Roche) for 45 min at 4° C. This cell lysate is then spun for 40 min at 16500 rpm at 4° C., and supernatant incubated with 6 mL of Ni-NTA resin (nickel-nitrilotriacetic acid) for 2 h at 4° C.
# Resin is then packed onto column and washed with 50 mM Tris, pH 8.0, 300 mM NaCl, 10% glycerol, 10 mM imidazole, 0.1% Triton™ X-100, 1 mM DTT, followed by 50 mM Tris, pH 8.0, 150 mM NaCl, 10 mM imidazole, 10% glycerol, 1 mM DTT. The proteins are eluted with 50 mM Tris, pH 8.0, 150 mM NaCl, 300 mM imidazole, 10% glycerol, 1 mM DTT. Pooled His-OGA containing fractions are concentrated to 6 ml and loaded onto Superdex75 (16/60). The protein is eluted with 50 mM Tris, pH 8.0, 150 mM NaCl, 10% glycerol, 2 mM DTT. Fractions containing His-OGA are pooled and protein concentration measured with BCA ([…]).
# The OGA enzyme catalyses the removal of O-GlcNAc from nucleocytoplasmic proteins. To measure this activity Fluorescein di-N-acetyl-β-N-acetyl-D-glucosaminide (FD-GlcNAc, Kim, Eun Ju; Kang, Dae Ook; Love, Dona C.; Hanover, John A. Carbohydrate Research (2006), 341(8), 971-982) is used as a substrate at a final concentration of 6.7 μM. This fluorogenic substrate becomes fluorescent upon cleavage by OGA, so that the enzyme activity can be measured by the increase in fluorescence detected at 535 nm (excitation at 485 nm).
# The assay buffer is prepared to give a final concentration of 50 mM […], 0.01% bovine serum albumin and 0.01% Triton™ X-100 in water, at pH 7. Compounds to be tested are diluted in pure dimethyl sulfoxide (DMSO) using ten point concentration response curves. Maximal compound concentration in the reaction mixture is 30 or 1 μM. Compounds at the appropriate concentration are pre-incubated with OGA enzyme for 30 minutes before the reaction is started by the addition of substrate. The final enzyme concentration is 3.24 nM or 0.5 nM, for the 30 or 1 μM maximal compound concentration, respectively. Reactions are allowed to proceed for 60 min at room temperature. Then, without stopping the reaction, fluorescence is read. IC50 values are calculated by plotting the normalized data vs. log of the compound and fitting the data using a four parameter logistic equation.
# The compounds of Examples 1 through 6 were tested essentially as described above.
# Sequence of full-length human O-GlcNAc-β-N-acetylglucosaminidase (OGA) (O60502 whole entry): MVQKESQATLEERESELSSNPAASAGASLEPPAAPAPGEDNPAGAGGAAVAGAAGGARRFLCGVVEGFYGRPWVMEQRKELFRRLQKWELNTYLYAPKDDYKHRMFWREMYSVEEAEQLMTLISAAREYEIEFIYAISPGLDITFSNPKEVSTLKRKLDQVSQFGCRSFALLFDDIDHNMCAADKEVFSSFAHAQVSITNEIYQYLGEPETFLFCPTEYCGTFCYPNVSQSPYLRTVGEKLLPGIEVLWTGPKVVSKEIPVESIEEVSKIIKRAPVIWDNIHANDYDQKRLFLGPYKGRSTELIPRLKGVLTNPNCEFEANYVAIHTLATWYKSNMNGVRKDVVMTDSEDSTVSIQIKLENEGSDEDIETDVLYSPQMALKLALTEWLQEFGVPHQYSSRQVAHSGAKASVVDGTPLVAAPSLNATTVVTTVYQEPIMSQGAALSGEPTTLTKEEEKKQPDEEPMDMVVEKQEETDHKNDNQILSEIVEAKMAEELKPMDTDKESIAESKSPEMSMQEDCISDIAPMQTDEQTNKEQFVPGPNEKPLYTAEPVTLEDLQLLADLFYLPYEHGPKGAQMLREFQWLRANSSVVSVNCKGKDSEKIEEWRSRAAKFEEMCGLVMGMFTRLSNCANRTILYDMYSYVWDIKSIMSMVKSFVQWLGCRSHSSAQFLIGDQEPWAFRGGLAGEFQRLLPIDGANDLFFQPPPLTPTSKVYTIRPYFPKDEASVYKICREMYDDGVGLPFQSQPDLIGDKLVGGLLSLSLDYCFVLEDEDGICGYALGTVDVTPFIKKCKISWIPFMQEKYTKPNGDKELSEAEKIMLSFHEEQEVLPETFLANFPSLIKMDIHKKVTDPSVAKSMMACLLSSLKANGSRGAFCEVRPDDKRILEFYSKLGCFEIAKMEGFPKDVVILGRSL
row,IC50,Structure (SMILES)
1,0.465 ± 0.224 nM,"CC(=O)N1Cc2cnc(O[C@@H]3C[C@H](C)N(Cc4cc5nc(C)sc5cc4F)C3)nc2C1 [Example 1, 1-(2-(((3R,5S)-1-((6-fluoro-2-methylbenzo[d]thiazol-5-yl)methyl)-5-methylpyrrolidin-3-yl)oxy)-5,7-dihydro-6H-pyrrolo[3,4-d]pyrimidin-6-yl)ethan-1-one]"
2,0.214 ± 0.037 nM,"CC(=O)N1Cc2ccc(O[C@@H]3C[C@H](C)N(Cc4cc5nc(C)sc5cc4F)C3)nc2C1 [Example 2, 1-(2-(((3R,5S)-1-((6-fluoro-2-methylbenzo[d]thiazol-5-yl)methyl)-5-methylpyrrolidin-3-yl)oxy)-5,7-dihydro-6H-pyrrolo[3,4-b]pyridin-6-yl)ethan-1-one]"
3,0.782 ± 0.087 nM,"CC(=O)N1Cc2cnc(O[C@@H]3C[C@H](C)N(Cc4cc5nc(C)sc5cc4F)C3)cc2C1 [Example 3, 1-[6-[(3R,5S)-1-[(6-fluoro-2-methyl-1,3-benzothiazol-5-yl)methyl]-5-methyl-pyrrolidin-3-yl]oxy-1,3-dihydropyrrolo[3,4-c]pyridin-2-yl]ethanone]"
4,0.592 ± 0.068 nM,"CC(=O)N1Cc2cc(O[C@@H]3C[C@H](C)N(Cc4cc5nc(C)sc5cc4F)C3)cnc2C1 [Example 4, 1-[3-[(3R,5S)-1-[(6-fluoro-2-methyl-1,3-benzothiazol-5-yl)methyl]-5-methyl-pyrrolidin-3-yl]oxy-5,7-dihydropyrrolo[3,4-b]pyridin-6-yl]ethanone]"
5,0.495 ± 0.109 nM,"CC(=O)N1Cc2cnc(O[C@@H]3C[C@H](C)N([C@@H](C)c4cc5nc(C)sc5cc4F)C3)nc2C1 [Example 5, 1-[2-[(3R,5S)-1-[(1S)-1-(6-fluoro-2-methyl-1,3-benzothiazol-5-yl)ethyl]-5-methyl-pyrrolidin-3-yl]oxy-5,7-dihydropyrrolo[3,4-d]pyrimidin-6-yl]ethanone]"
6,0.385 ± 0.088 nM,"CC(=O)N1Cc2ccc(O[C@@H]3C[C@H](C)N([C@@H](C)c4cc5nc(C)sc5cc4F)C3)nc2C1 [Example 6, 1-[2-[(3R,5S)-1-[(1S)-1-(6-fluoro-2-methyl-1,3-benzothiazol-5-yl)ethyl]-5-methyl-pyrrolidin-3-yl]oxy-5,7-dihydropyrrolo[3,4-b]pyridin-6-yl]ethanone]"
